We go through one compound from patent publication US20140303386A1, “COMPOSITIONS AND METHODS FOR ENHANCING LIPID PRODUCTION IN […] INDUCTION OF CELL CYCLE ARREST” (RUTGERS, THE STATE UNIVERSITY OF NEW JERSEY, priority 2011, published 2014).

Molecules are shown by their SMILES.

Type in all cases: cell-based
The test system of test [1] is marine diatom Phaeodactylum tricornutum. In words: Cell cycle analysis (propidium iodide DNA stain, flow cytometry). To be noted: higher dose of inhibitor.
Description: (§1) Cultures were grown in continuous light at approximately 70 μmol quanta m^−2s^−1, in nutrient-replete conditions (F/2 media). […] The CDK inhibitor was applied when cells were growing exponentially (cell concentration was between 250,000-700,000 cells/ml).
The test system is the same in test [2]. In words: Photosynthetic health (Fv/Fm, chlorophyll per cell, a*). To be noted: treated vs untreated cells.
Description: as §1
For test [3] the test system is unchanged. In words: Fatty acid content / synthesis per cell.
Description: as §1
The test system is the same in test [4]. In words: Protein synthesis in treated cells. To be noted: treated vs untreated cells.
Description: as §1

In the case of `Nc1nc(OCC2CCCCC2)c2nc[nH]c2n1` [NU 2058, 6-(Cyclohexylmethoxy)-9H-purin-2-amine], the “percentage of cells arrested in G1” value in test [1] is given as “higher percentage of cells arrested in G1”. For the same compound, the “photosynthetic capacity (Fv/Fm, chlorophyll per cell, a*)” value in test [2] is given as “no appreciable differences”. In addition, in test [3] (7 μM, over a period of one day), the “increase in fatty acid synthesis compared to untreated cells” value was found to be 80%. The “fatty acid content per cell” value in test [3] (higher dose of inhibitor) was “higher fatty acid content per cell”. Besides, in test [4], the “protein synthesis, lower than in untreated cells” value is “about 18%”.
